Measurements as given in US9944598B2, “Mono- or di-substituted indole derivatives as dengue viral replication inhibitors” (priority 2014, dated 2018).

Assays:
[1] = system: DENV-2 16681 strain labeled with eGFP; assay: DENV-2 antiviral assay (eGFP fluorescence, Vero cells); format: cell-based, Dengue virus; settings: DENV-2 16681 eGFP, MOI 0.5, 3 days
Method: The antiviral activity of all the compounds of the invention was tested against DENV-2 16681 strain which was labeled with enhanced green fluorescent protein (eGPF). The culture medium consists of minimal essential medium supplemented with 2% of heat-inactivated fetal calf serum, 0.04% gentamycin (50 mg/mL) and 2 mM of L-glutamine. Vero cells, obtained from ECACC, were suspended in culture medium and 25 μL was added to 384-well plates (2500 cells/well), which already contain the antiviral compounds. Typically, these plates contain a 4-fold serial dilution of 9 dilution steps of the test compound at 200 times the final concentration in 100% DMSO (200 nL). In addition, each compound concentration is tested in quadruplicate (final concentration range: 25 μM-0.00038 μM). Finally, each plate contains wells which are assigned as virus controls (containing cells and virus in the absence of compound), cell controls (containing cells in the absence of virus and compound) and medium controls (containing medium in the absence of cells, virus and compounds). To the wells assigned as medium control, 25 μL of culture medium was added instead of Vero cells. Once the cells were added to the plates, the plates were incubated for 30 minutes at room temperature to allow the cells to distribute evenly within the wells. Next, the plates were incubated in a fully humidified incubator (37° C., 5% CO2) until the next day. Then, DENV-2 strain 16681, labeled with eGFP, was added at a multiplicity of infection (MOI) of 0.5. Therefore, 15 μL of virus suspension was added to all the wells containing test compound and to the wells assigned as virus control. In parallel, 15 μL of culture medium was added to the medium and cell controls. Next, the plates were incubated for 3 days in a fully humidified incubator (37° C., 5% CO2). At the day of the read out, the eGFP fluorescence was measured using an automated fluorescence microscope at 488 nm (blue laser). Using an in-house LIMS system, inhibition dose response curves for each compound were calculated and the half maximal effective concentration (EC50) was determined. Therefore, the percent inhibition (I) for every test concentration is calculated using the following formula: I=100*(ST−SCC)/(SVC−SCC); ST, SCC and SVC are the amount of eGFP signal in the test compound, cell control and virus control wells, respectively. The EC50 represents the concentration of a compound at which the virus replication is inhibited with 50%, as measured by a 50% reduction of the eGFP fluorescent intensity compared to the virus control. The EC50 is calculated using linear interpolation (Table 1).

Vero cells = assay: in vitro; format: cell-based; settings: African green monkey
Method: (§1) In parallel, the toxicity of the compounds was assessed on the same plates. Once the read-out for the eGFP signal was done, 10 μL of resazurin, a cell viability stain, was added to all wells of the 384-well plates. The resazurin assay is based on the reduction of the blue resazurin by NADH, produced by the cells, into the highly fluorescent product, resorufin. The formation of pink fluorescent resorufin is directly related to the number of viable cells in the well. The plates were incubated for an additional 5 hours in a fully humidified incubator (37° C., 5% CO2). Next, the plates were measured on an Infinite reader (Tecan) using an excitation wavelength of 530 nm. The half maximal cytotoxic concentration (CC50) was also determined, defined as the concentration required to reduce the resazurin conversion by 50% compared to that of the cell control wells (Table 1). Finally, the selectivity index (SI) is determined for the compounds, which is calculated as followed: SI=CC50/EC50.

in vitro = format: cell-based; settings: African green monkey, CC50
Method: as §1

[2] = Dengue virus, DENV2, Vero, 72 h

Row | Compound | EC50 [1] | CC50 (Vero cells) | EC50 [1, 2] | CC50 (in vitro) | melting point
1 | COc1cc(NC(C(=O)c2c[nH]c3cc(Cl)ccc23)c2ccc(Cl)cc2OC)cc(OCCO)c1 (single isomer, unassigned) [Compound 4B, 1-(6-chloro-1H-indol-3-yl)-2-(4-chloro-2-methoxyphenyl)-2-((3-(2-hydroxyethoxy)-5-methoxyphenyl)amino)ethanone] | 45 nM | 7400 nM | – | – | –
2 | COc1cc(NC(C(=O)c2c[nH]c3cc(F)ccc23)c2ccc(Cl)cc2OC)cc(OCCO)c1 (single isomer, unassigned) [Compound 1B, 2-(4-chloro-2-methoxyphenyl)-1-(6-fluoro-1H-indol-3-yl)-2-((3-(2-hydroxyethoxy)-5-methoxyphenyl)amino)ethanone] | 140 nM | 6300 nM | – | – | –
3 | COc1cc(NC(C(=O)c2c[nH]c3c(C)c(Cl)ccc23)c2ccc(Cl)cc2OC)cc(OCCO)c1 (single isomer, unassigned) [Compound 3B, 2-(4-chloro-2-methoxyphenyl)-1-(6-chloro-7-methyl-1H-indol-3-yl)-2-((3-(2-hydroxyethoxy)-5-methoxyphenyl)amino)ethanone] | 45 nM | 7100 nM | – | – | –
4 | COc1cc(NC(C(=O)c2c[nH]c3c(F)cc(C)cc23)c2ccc(Cl)cc2OC)cc(OCCO)c1 (single isomer, unassigned) [Compound 10B, 2-(4-chloro-2-methoxyphenyl)-1-(7-fluoro-5-methyl-1H-indol-3-yl)-2-((3-(2-hydroxyethoxy)-5-methoxyphenyl)amino)ethanone] | 190 nM | 3800 nM | – | – | –
5 | COc1cc(NC(C(=O)c2c[nH]c3c(C)cc(F)cc23)c2ccc(Cl)cc2OC)cc(OCCO)c1 (single isomer, unassigned) [Compound 8B, 2-(4-chloro-2-methoxyphenyl)-1-(5-fluoro-7-methyl-1H-indol-3-yl)-2-((3-(2-hydroxyethoxy)-5-methoxyphenyl)amino)ethanone] | 260 nM | 5700 nM | – | – | –
6 | COc1cc(NC(C(=O)c2c[nH]c3cc(OC)c(F)cc23)c2ccc(Cl)cc2OC)cc(OCCO)c1 (racemic) [Compound 7, 2-(4-chloro-2-methoxyphenyl)-1-(5-fluoro-6-methoxy-1H-indol-3-yl)-2-((3-(2-hydroxyethoxy)-5-methoxyphenyl)amino)ethanone] | – | – | 2.6 nM | 7400 nM | –
7 | COc1cc(NC(C(=O)c2c[nH]c3cc(OC)c(C)cc23)c2ccc(Cl)cc2OC)cc(OCCO)c1 (single isomer, unassigned) [Compound 6B, 2-(4-chloro-2-methoxyphenyl)-2-((3-(2-hydroxyethoxy)-5-methoxyphenyl)amino)-1-(6-methoxy-5-methyl-1H-indol-3-yl)ethanone] | 76 nM | 5400 nM | – | – | –
8 | COc1cc(NC(C(=O)c2c[nH]c3c(C)c(Cl)ccc23)c2ccc(Cl)cc2OC)cc(OCCO)c1 (racemic) [Compound 3, 2-(4-chloro-2-methoxyphenyl)-1-(6-chloro-7-methyl-1H-indol-3-yl)-2-((3-(2-hydroxyethoxy)-5-methoxyphenyl)amino)ethanone] | – | – | 0.72 nM | 5500 nM | 220 °C
9 | COc1cc(NC(C(=O)c2c[nH]c3c(C)c(F)ccc23)c2ccc(Cl)cc2OC)cc(OCCO)c1 (single isomer, unassigned) [Compound 2B, 2-(4-chloro-2-methoxyphenyl)-1-(6-fluoro-7-methyl-1H-indol-3-yl)-2-((3-(2-hydroxyethoxy)-5-methoxyphenyl)amino)ethanone] | 81 nM | 6200 nM | – | – | –
10 | COc1cc(NC(C(=O)c2c[nH]c3cc(OC)ccc23)c2ccc(Cl)cc2OC)cc(OCCO)c1 (single isomer, unassigned) [Compound 5B, 2-(4-chloro-2-methoxyphenyl)-2-((3-(2-hydroxyethoxy)-5-methoxyphenyl)amino)-1-(6-methoxy-1H-indol-3-yl)ethanone] | 400 nM | 8100 nM | – | – | –
11 | COc1cc(NC(C(=O)c2c[nH]c3c(F)c(F)ccc23)c2ccc(Cl)cc2OC)cc(OCCO)c1 (single isomer, unassigned) [Compound 11A, 2-(4-chloro-2-methoxyphenyl)-1-(6,7-difluoro-1H-indol-3-yl)-2-((3-(2-hydroxyethoxy)-5-methoxyphenyl)amino)ethanone] | 90 nM | – | – | 6500 nM | –
12 | COc1cc(NC(C(=O)c2c[nH]c3c(C)cc(F)cc23)c2ccc(Cl)cc2OC)cc(OCCO)c1 (racemic) [Compound 8, 2-(4-chloro-2-methoxyphenyl)-1-(5-fluoro-7-methyl-1H-indol-3-yl)-2-((3-(2-hydroxyethoxy)-5-methoxyphenyl)amino)ethanone] | – | – | 2.4 nM | 8000 nM | –
13 | COc1cc(NC(C(=O)c2c[nH]c3cc(OC)c(C)cc23)c2ccc(Cl)cc2OC)cc(OCCO)c1 (racemic) [Compound 6, 2-(4-chloro-2-methoxyphenyl)-2-((3-(2-hydroxyethoxy)-5-methoxyphenyl)amino)-1-(6-methoxy-5-methyl-1H-indol-3-yl)ethanone] | – | – | 1.2 nM | 5600 nM | –
14 | COc1cc(NC(C(=O)c2c[nH]c3cc(F)c(F)cc23)c2ccc(Cl)cc2OC)cc(OCCO)c1 (racemic) [Compound 9, 2-(4-chloro-2-methoxyphenyl)-1-(5,6-difluoro-1H-indol-3-yl)-2-((3-(2-hydroxyethoxy)-5-methoxyphenyl)amino)ethanone] | – | – | 2.2 nM | 7300 nM | –
15 | COc1cc(NC(C(=O)c2c[nH]c3cc(F)ccc23)c2ccc(Cl)cc2OC)cc(OCCO)c1 (racemic) [Compound 1, 2-(4-chloro-2-methoxyphenyl)-1-(6-fluoro-1H-indol-3-yl)-2-((3-(2-hydroxyethoxy)-5-methoxyphenyl)amino)ethanone] | – | – | 3 nM | 6200 nM | –
16 | COc1cc(NC(C(=O)c2c[nH]c3cc(Cl)ccc23)c2ccc(Cl)cc2OC)cc(OCCO)c1 (racemic) [Compound 4, 1-(6-chloro-1H-indol-3-yl)-2-(4-chloro-2-methoxyphenyl)-2-((3-(2-hydroxyethoxy)-5-methoxyphenyl)amino)ethanone] | – | – | 1.4 nM | 6300 nM | 154 °C
17 | COc1cc(NC(C(=O)c2c[nH]c3cc(OC)ccc23)c2ccc(Cl)cc2OC)cc(OCCO)c1 (racemic) [Compound 5, 2-(4-chloro-2-methoxyphenyl)-2-((3-(2-hydroxyethoxy)-5-methoxyphenyl)amino)-1-(6-methoxy-1H-indol-3-yl)ethanone] | – | – | 2.3 nM | 6500 nM | –
18 | COc1cc(NC(C(=O)c2c[nH]c3c(F)cc(C)cc23)c2ccc(Cl)cc2OC)cc(OCCO)c1 (stereo not drawn) [Compound 10, 2-(4-chloro-2-methoxyphenyl)-1-(7-fluoro-5-methyl-1H-indol-3-yl)-2-((3-(2-hydroxyethoxy)-5-methoxyphenyl)amino)ethanone] | – | – | 7.5 nM | 5800 nM | –
19 | COc1cc(NC(C(=O)c2c[nH]c3cc(OC)c(F)cc23)c2ccc(Cl)cc2OC)cc(OCCO)c1 (single isomer, unassigned) [Compound 7B, 2-(4-chloro-2-methoxyphenyl)-1-(5-fluoro-6-methoxy-1H-indol-3-yl)-2-((3-(2-hydroxyethoxy)-5-methoxyphenyl)amino)ethanone] | 69 nM | 7800 nM | – | – | –
20 | COc1cc(NC(C(=O)c2c[nH]c3c(F)c(F)ccc23)c2ccc(Cl)cc2OC)cc(OCCO)c1 (racemic) [Compound 11, 2-(4-chloro-2-methoxyphenyl)-1-(6,7-difluoro-1H-indol-3-yl)-2-((3-(2-hydroxyethoxy)-5-methoxyphenyl)amino)ethanone] | – | – | 3.1 nM | 5800 nM | –
